Assay results as given in the supplement of paper PMC13380429.

Tests used:
Details in all cases: 72 h
HepG2 [1] = test: relative viability EC50 (midpoint between 100% and the lowest measured viability); higher = less toxic
Caco-2 [2] = test: as above
Vero E6 [3] = test: as above
U2OS [4] = test: as above
Calu-3 [5] = test: as above
HepG2 [6] = test: drug sensitivity score (DSS) for viability; higher = more toxic; extreme values may be limits of the assay
Caco-2 [7] = test: as above
Vero E6 [8] = test: as above
U2OS [9] = test: as above
Calu-3 [10] = test: as above
HepG2 [11] = test: cell viability relative to DMSO; higher = less toxic
Caco-2 [12] = test: as above
Vero E6 [13] = test: as above
U2OS [14] = test: as above
Calu-3 [15] = test: as above

| SMILES | relative viability EC50 (HepG2 [1]) [µM] | relative viability EC50 (Caco-2 [2]) [µM] | relative viability EC50 (Vero E6 [3]) [µM] | relative viability EC50 (U2OS [4]) [µM] | relative viability EC50 (Calu-3 [5]) [µM] | drug sensitivity score (HepG2 [6]) | drug sensitivity score (Caco-2 [7]) | drug sensitivity score (Vero E6 [8]) | drug sensitivity score (U2OS [9]) | drug sensitivity score (Calu-3 [10]) | cell viability (HepG2 [11]; 1 nM) [%] | cell viability (HepG2 [11]; 10 nM) [%] | cell viability (HepG2 [11]; 100 nM) [%] | cell viability (HepG2 [11]; 1000 nM) [%] | cell viability (HepG2 [11]; 10000 nM) [%] | cell viability (Caco-2 [12]; 1 nM) [%] | cell viability (Caco-2 [12]; 10 nM) [%] | cell viability (Caco-2 [12]; 100 nM) [%] | cell viability (Caco-2 [12]; 1000 nM) [%] | cell viability (Caco-2 [12]; 10000 nM) [%] | cell viability (Vero E6 [13]; 1 nM) [%] | cell viability (Vero E6 [13]; 10 nM) [%] | cell viability (Vero E6 [13]; 100 nM) [%] | cell viability (Vero E6 [13]; 1000 nM) [%] | cell viability (Vero E6 [13]; 10000 nM) [%] | cell viability (U2OS [14]; 1 nM) [%] | cell viability (U2OS [14]; 10 nM) [%] | cell viability (U2OS [14]; 100 nM) [%] | cell viability (U2OS [14]; 1000 nM) [%] | cell viability (U2OS [14]; 10000 nM) [%] | cell viability (Calu-3 [15]; 1 nM) [%] | cell viability (Calu-3 [15]; 10 nM) [%] | cell viability (Calu-3 [15]; 100 nM) [%] | cell viability (Calu-3 [15]; 1000 nM) [%] | cell viability (Calu-3 [15]; 10000 nM) [%] |
| --- | --- | --- | --- | --- | --- | --- | --- | --- | --- | --- | --- | --- | --- | --- | --- | --- | --- | --- | --- | --- | --- | --- | --- | --- | --- | --- | --- | --- | --- | --- | --- | --- | --- | --- | --- |
| O=C(c1ccc2nccnc2c1)N1CCCCC1 [ampalex] | > 10 | > 10 | > 10 | > 10 | > 10 | 0 | 0 | 0 | 0 | 0 | 103 | 99.6 | 108 | 102 | 102 | 97.6 | 100 | 94.5 | 103 | 101 | 96.3 | 96.8 | 98.8 | 93.1 | 94 | 98.3 | 102 | 94.8 | 99.7 | 102 | 97.4 | 107 | 95.5 | 96.6 | 100 |
| Cc1ccc(O)c(N=Nc2ccccc2)n1 [SIB-1757] | > 10 | > 10 | > 10 | > 10 | > 10 | 0 | 0.1 | 0 | 0 | 0 | 108 | 110 | 107 | 108 | 94.5 | 92.4 | 103 | 98.6 | 103 | 86.2 | 98.1 | 94.6 | 96.7 | 99 | 92.5 | 104 | 107 | 102 | 103 | 95.9 | 99.8 | 107 | 111 | 99.9 | 92.8 |
| C=CCN1C[C@H](C)N([C@H](c2ccc(C(=O)N(CC)CC)cc2)c2cccc(OC)c2)C[C@H]1C [SNC-80] | > 10 | > 10 | > 10 | > 10 | > 10 | 0 | 0 | 0 | 0 | 0 | 99.9 | 84.6 | 100 | 106 | 97.4 | 92.1 | 99.2 | 101 | 95.5 | 93.7 | 106 | 97.7 | 105 | 102 | 101 | 98.4 | 103 | 93.4 | 99.4 | 94.7 | 93.4 | 98.8 | 101 | 91.2 | 104 |
| COc1cc2nccc(Oc3ccc(NC(=O)Nc4ccc(F)cc4F)c(F)c3)c2cc1OC [KI-8751] | > 10 | > 10 | > 10 | > 10 | > 10 | 0 | 0 | 0 | 0 | 0 | 97.5 | 116 | 106 | 101 | 95.5 | 95.8 | 91.8 | 102 | 92.4 | 99.6 | 101 | 107 | 98.9 | 107 | 107 | 98.8 | 97.6 | 99.2 | 99.2 | 102 | 94.1 | 97.6 | 86.8 | 95.7 | 93.1 |
| CCOCCOc1ccccc1C(N)=O [etosalamide] | > 10 | > 10 | > 10 | > 10 | > 10 | 0 | 0 | 0 | 0 | 0 | 111 | 104 | 86.7 | 101 | 92.3 | 91.3 | 89.5 | 108 | 97.9 | 100 | 104 | 93.7 | 93.3 | 95.4 | 96.1 | 102 | 99.9 | 102 | 101 | 97.7 | 102 | 90.5 | 97.6 | 101 | 98.7 |
| CCc1nc(C)ccc1O [emoxipin] | > 10 | > 10 | > 10 | > 10 | > 10 | 0 | 0 | 0 | 0 | 0 | 110 | 108 | 97.4 | 99.6 | 108 | 95.1 | 99.6 | 98.1 | 98.6 | 90.9 | 98.1 | 102 | 97.3 | 92.7 | 93.2 | 102 | 101 | 106 | 97 | 103 | 105 | 111 | 104 | 96.8 | 105 |
| CCCC[C@H](NC(C)=O)C(=O)N[C@H]1CC(=O)NCCCC[C@@H](C(=O)O)NC(=O)[C@H](Cc2c[nH]c3ccccc23)NC(=O)[C@H](CCCNC(=N)N)NC(=O)[C@@H](Cc2ccccc2)NC(=O)[C@H](Cc2c[nH]cn2)NC1=O [bremelanotide] | > 10 | > 10 | > 10 | > 10 | > 10 | 0 | 0 | 0 | 0 | 0 | 115 | 118 | 95.7 | 102 | 98.9 | 114 | 94.4 | 85.7 | 90.8 | 117 | 100 | 102 | 108 | 99.3 | 107 | 99.9 | 102 | 95 | 104 | 101 | 99.1 | 104 | 90.8 | 100 | 96.2 |
